The numbers were not newly measured in publication PMC11333285, “Inhibition of lysine acetyltransferase KAT6 in ER^+HER2^− metastatic breast cancer: a phase 1 trial” (Nature Medicine, 2024), which cites them from elsewhere.

Like-named read-outs stand apart in the source and are kept apart here.

For one data set, the system named is mBC with ESR1 mutations. Also noted: method as in PMID 35584336. As to conditions: patients with ESR1 mutations.
Data set [1] deals with HR+/HER2− mBC. Further details: method as in PMID 34357781. As to conditions: HR+/HER2− mBC progressed after aromatase inhibitors.
Data set [2] relates to HR+/HER2− mBC. Further details: method as in PMID 35583555, PMID 35584336. As to conditions: all comers after first-line CDK4/6 inhibitors and ET.

Turning to `CCNCCc1ccc(CN(CC)c2cc(OC)ccc2[C@@H]2CCc3cc(O)ccc3C2)cc1` [elacestrant], in the data set with mBC with ESR1 mutations, the mPFS is 3.8 months. Regarding `Nc1ccccc1NC(=O)c1ccc(CNC(=O)OCc2cccnc2)cc1` [entionostat plus ET], in the data set on HR+/HER2− mBC [1], the mPFS is recorded as 3.3 months. As to `C[C@]12CC[C@@H]3c4ccc(O)cc4C[C@@H](CCCCCCCCC[S+]([O-])CCCC(F)(F)C(F)(F)F)[C@H]3[C@@H]1CC[C@@H]2O` (stereo partly shown) [fulvestrant], in the data set with HR+/HER2− mBC [2], the CBR was 13.7% and the mPFS is 2 months.
